Laboratory results reported in patent US10233184B2, “7-substituted sulfonimidoylpurinone compounds and derivatives for the treatment and prophylaxis of virus infection” (Hoffmann-La Roche Inc., priority 2016, dated 2019).
Where two headings read alike, the source gives them in different places.

Columns and labels:
human TLR7 = target: T1, human TLR7 (Homo sapiens, UniProt Q9NYK1); test: HEK293-Blue-hTLR-7 cells assay (SEAP reporter); assay type: cell-based; details: for EC50: HEK293-Blue-hTLR-7 cells, SEAP reporter, 20 hrs; for Ratio (EC50(prodrug)/EC50(active form)): EC50 of prodrug over EC50 of corresponding active form
T1 sequence (Q9NYK1 27-1049): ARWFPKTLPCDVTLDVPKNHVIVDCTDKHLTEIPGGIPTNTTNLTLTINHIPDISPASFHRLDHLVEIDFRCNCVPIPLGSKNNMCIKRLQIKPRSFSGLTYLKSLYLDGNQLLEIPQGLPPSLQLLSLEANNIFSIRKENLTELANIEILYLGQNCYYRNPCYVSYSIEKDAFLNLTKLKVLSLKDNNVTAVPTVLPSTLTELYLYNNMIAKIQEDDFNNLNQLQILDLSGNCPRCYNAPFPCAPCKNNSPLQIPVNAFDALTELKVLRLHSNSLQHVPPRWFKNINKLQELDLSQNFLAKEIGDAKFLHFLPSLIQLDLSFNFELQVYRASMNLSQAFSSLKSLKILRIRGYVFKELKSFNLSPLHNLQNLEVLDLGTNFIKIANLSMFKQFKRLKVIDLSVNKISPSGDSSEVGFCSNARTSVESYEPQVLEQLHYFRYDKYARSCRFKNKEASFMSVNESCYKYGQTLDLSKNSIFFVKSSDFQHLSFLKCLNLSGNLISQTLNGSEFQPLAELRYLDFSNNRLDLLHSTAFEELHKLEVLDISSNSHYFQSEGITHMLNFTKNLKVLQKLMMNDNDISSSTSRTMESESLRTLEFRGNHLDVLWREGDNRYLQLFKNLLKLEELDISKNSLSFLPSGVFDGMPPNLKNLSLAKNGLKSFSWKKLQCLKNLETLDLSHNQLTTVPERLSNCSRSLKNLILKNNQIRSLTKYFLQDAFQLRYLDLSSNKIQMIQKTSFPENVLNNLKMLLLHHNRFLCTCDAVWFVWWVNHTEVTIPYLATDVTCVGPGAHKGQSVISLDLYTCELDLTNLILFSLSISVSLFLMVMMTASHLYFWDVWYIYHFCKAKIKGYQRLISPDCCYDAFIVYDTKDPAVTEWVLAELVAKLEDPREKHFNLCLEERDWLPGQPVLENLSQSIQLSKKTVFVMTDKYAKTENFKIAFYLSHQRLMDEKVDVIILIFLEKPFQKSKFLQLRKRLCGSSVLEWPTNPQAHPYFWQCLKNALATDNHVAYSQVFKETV
Text: HEK293-Blue-hTLR-7 Cells Assay:
A stable HEK293-Blue-hTLR-7 cell line was purchased from InvivoGen (Cat.#: hkb-htlr7, San Diego, Calif., USA). These cells were designed for studying the stimulation of human TLR7 by monitoring the activation of NF-κB. A SEAP (secreted embryonic alkaline phosphatase) reporter gene was placed under the control of the IFN-β minimal promoter fused to five NF-κB and AP-1-binding sites. The SEAP was induced by activating NF-κB and AP-1 via stimulating HEK-Blue hTLR7 cells with TLR7 ligands. Therefore the reporter expression was regulated by the NF-κB promoter upon stimulation of human TLR7 for 20 hrs. The cell culture supernatant SEAP reporter activity was determined using QUANTI-Blue™ kit (Cat.#: rep-qbl, Invivogen, San Diego, Calif., USA) at a wavelength of 640 nm, a detection medium that turns purple or blue in the presence of alkaline phosphatase.
HEK293-Blue-hTLR7 cells were incubated at a density of 250,000˜450,000 cells/mL in a volume of 180 μL in a 96-well plate in Dulbecco's Modified Eagle's medium (DMEM) containing 4.5 g/L glucose, 50 U/mL penicillin, […], […], 2 mM L-glutamine, 10% (V/V) heat-inactivated fetal bovine serum for 24 hrs. Then the HEK293-Blue-hTLR-7 cells were incubated with addition of 20 μL test compound in a serial dilution in the presence of final DMSO at 1% and perform incubation under 37° C. in a CO2 incubator for 20 hrs. Then 20 μL of the supernatant from each well was incubated with 180 μL Quanti-blue substrate solution at 37° C. for 2 hrs and the absorbance was read at 620˜655 nm using a spectrophotometer. The signalling pathway that TLR7 activation leads to downstream NF-κB activation has been widely accepted, and therefore similar reporter assay was also widely used for evaluating TLR7 agonist (Tsuneyasu Kaisho and Takashi Tanaka, Trends in Immunology, Volume 29, Issue 7, July 2008, […]; Hiroaki Hemmi et al, Nature Immunology 3, 196-200 (2002)).
The Compounds and Examples of the present invention were tested in HEK293-hTLR-7 assay for their TLR7 agonism activity as described herein and results are listed in Table 1. […] The calculated ratio of EC50(prodrug)/EC50(active form) were within the range from 32 to about 7600.

[1] = Single dose PK study in male Wister-Han rats; assay type: in vivo; details: male, Wister-Han, rat, plasma, po, 5 mg/kg, 5 mg/kg oral dosing of active form
Experimental: The single dose PK in Male Wister-Han Rats was performed to assess pharmacokinetic properties of tested compounds. Two groups of animals were dosed via Gavage (POE) of the respective compound. […] Blood samples were placed into tubes containing EDTA-K2 anticoagulant and centrifuged at 5000 rpm for 6 min at 4° C. to separate plasma from the samples. After centrifugation, the resulting plasma was transferred to clean tubes for bioanalysis of both prodrug and active form on LC/MS/MS. In the groups that prodrug were dosed, the concentration of prodrugs in the plasma samples was under the detection limit. The “tested compound” in Table 8 was used as the internal standard for testing the metabolite (active form) of “dose compound” in vivo. The pharmacokinetic parameters were calculated using non-compartmental module of WinNonlin® Professional 6.2. The peak concentration (Cmax) was recorded directly from experimental observations. The area under the plasma concentration-time curve (AUC0-t) was calculated using the linear trapezoidal rule up to the last detectable concentration. Cmax and AUC0-last are two critical PK parameters related to the in vivo efficacy of the tested compound. Compounds with higher Cmax and AUC0-last will lead to the better in vivo efficacy.

[2] = active form, read-out: HEK293-hTLR-7 EC50 (Active form)
[3] = prodrug, read-out: HEK293-hTLR-7 EC50 (Prodrug)

Ratio (EC50(prodrug)/EC50(active form)) (human TLR7)	EC50 (human TLR7; [3]) [µM]	Structure (SMILES)	EC50 (human TLR7; [2]) [µM]	other results
		CCCS(=N)(=O)c1nc(N)c2[nH]c(=O)n(Cc3ccccc3)c2n1 (single isomer, unassigned) [Compound 1e-B]	0.086	
		CCC[S@](=N)(=O)c1nc(N)c2[nH]c(=O)n(Cc3ccc(Cl)cc3)c2n1 (single isomer, unassigned) [Compound 34e-A]	0.014	
		CCC[S@](=N)(=O)c1nc(N)c2[nH]c(=O)n(Cc3ccc(Cl)cc3)c2n1 (single isomer, unassigned) [Compound 34e-B]	0.011	
		CCCS(=N)(=O)c1nc(N)c2[nH]c(=O)n(Cc3ccc(C)cc3)c2n1 (single isomer, unassigned) [Compound 36g-A]	0.019	
		CCCS(=N)(=O)c1nc(N)c2[nH]c(=O)n(Cc3ccc(C)cc3)c2n1 (single isomer, unassigned) [Compound 36g-B]	0.022	
2154.5	47.4	CCC[S@](=N)(=O)c1nc(N)c2c(n1)n(Cc1ccc(C)cc1)c(=O)n2C(=O)N1CCCC1 (stereo in doubt) [Example 37-B, 6-amino-2-[S(R)-propylsulfonimidoyl]-9-(p-tolylmethyl)-7-(pyrrolidine-1-carbonyl)purin-8-one]		
886.4	19.5	CCC[S@](=N)(=O)c1nc(N)c2c(n1)n(Cc1ccc(C)cc1)c(=O)n2C(=O)N(C)CCOC (stereo in doubt) [Example 38-B, 6-amino-N-(2-methoxyethyl)-N-methyl-8-oxo-2-[S(R)-propylsulfonimidoyl]-9-(p-tolylmethyl)purine-7-carboxamide]		
879.1	96.7	CCN(C)C(=O)n1c(=O)n(Cc2ccc(C)cc2)c2nc([S@@](=N)(=O)CC)nc(N)c21 (stereo in doubt) [Example 44-B, 6-Amino-N-ethyl-2-[S(R)-ethylsulfonimidoyl]-N-methyl-8-oxo-9-(p-tolylmethyl)purine-7-carboxamide]		
		CCCS(=N)(=O)c1nc(N)c2[nH]c(=O)n(Cc3ccccc3)c2n1 (stereo not shown) [Compound 1e, 6-amino-9-benzyl-2-(propylsulfonimidoyl)-7H-purin-8-one]	0.065	
		CCS(=N)(=O)c1nc(N)c2[nH]c(=O)n(Cc3ccc(Cl)cc3)c2n1 (stereo not shown) [Compound 41c, 6-amino-9-[(4-chlorophenyl)methyl]-2-(ethylsulfonimidoyl)-7H-purin-8-one]	0.053	
428.6	6	CCCCN(C)C(=O)n1c(=O)n(Cc2ccc(Cl)cc2)c2nc([S@@](=N)(=O)CCC)nc(N)c21 [Example 34-A, 6-Amino-N-butyl-9-[(4-chlorophenyl)methyl]-N-methyl-8-oxo-2-[S(S)-propylsulfonimidoyl]purine-7-carboxamide]		
578.2	6.36	CCCCN(C)C(=O)n1c(=O)n(Cc2ccc(Cl)cc2)c2nc([S@@](=N)(=O)CCC)nc(N)c21 [Example 34-B, 6-amino-N-butyl-9-[(4-chlorophenyl)methyl]-N-methyl-8-oxo-2-[S(S)-propylsulfonimidoyl]purine-7-carboxamide]		
1400	26.6	CCC[S@](=N)(=O)c1nc(N)c2c(n1)n(Cc1ccc(C)cc1)c(=O)n2C(=O)N1CCCC1 [Example 37-A, 6-Amino-2-[S(S)-propylsulfonimidoyl]-9-(p-tolylmethyl)-7-(pyrrolidine-1-carbonyl)purin-8-one]		
	26.2	CCC[S@](=N)(=O)c1nc(N)c2c(n1)n(Cc1ccc(C)cc1)c(=O)n2C(=O)N(C)CCOC [Example 38-A, 6-Amino-N-(2-methoxyethyl)-N-methyl-8-oxo-2-[S(S)-propylsulfonimidoyl]-(p-tolylmethyl)purine-7-carboxamide]		
159.3	4.3	CCCS(=N)(=O)c1nc(N)c2c(n1)n(Cc1ccc(C)cc1)c(=O)n2C(=O)N(C)CC (stereo not shown) [Example 39, 6-Amino-N-ethyl-N-methyl-8-oxo-2-(propylsulfonimidoyl)-9-(p-tolylmethyl)purine-7-carboxamide]		
1955.6	52.8	CCCCN(C)C(=O)n1c(=O)n(Cc2ccc(C)cc2)c2nc(S(=N)(=O)CCC)nc(N)c21 (stereo not shown) [Example 40, 6-Amino-N-butyl-N-methyl-8-oxo-2-(propylsulfonimidoyl)-9-(p-tolylmethyl)purine-7-carboxamide]		
679.2	36	CCCN(C)C(=O)n1c(=O)n(Cc2ccc(Cl)cc2)c2nc(S(=N)(=O)CC)nc(N)c21 (stereo not shown) [Example 41]		
1868.6	65.4	CCN(C)C(=O)n1c(=O)n(Cc2ccc(C)cc2)c2nc([S@@](=N)(=O)CC)nc(N)c21 [Example 44-A, 6-Amino-N-ethyl-2[S(S)-ethylsulfonimidoyl]-N-methyl-8-oxo-9-(p-tolylmethyl)purine-7-carboxamide]		
		CCS(=O)(=O)c1nc(N)c2[nH]c(=O)n(Cc3ccc(Cl)cc3)c2n1 [Example S-2, reference compound]		AUC(0-t) [1]: 0.748 µM·h; Cmax [1]: 52.7 nM; concentration at 0.25 h ([1]; 0.25 h): 9.49 nM; concentration at 0.5 h ([1]; 0.5 h): 16.7 nM; concentration at 1 h ([1]; 1 h): 19.3 nM; concentration at 2 h ([1]; 2 h): 24.9 nM; concentration at 4 h ([1]; 4 h): 47.5 nM; concentration at 8 h ([1]; 8 h): 52.7 nM; concentration at 24 h ([1]; 24 h): 4.9 nM
